# Read-outs that look alike come from different tables or passages of the source.
# Key:
# [1] = tested on: human SKM-1 acute myeloid leukemia cells; assay: SKM-1 antiproliferation cell-based assay (ATPlite)
# Summary of the method: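 Log-phase cells in RPMI 1640/15% FBS were seeded at 34722 cells/mL and exposed for 4 days to nine-concentration DMSO serial dilutions in triplicate. Viability was read as ATP luminescence (ATPlite 1step), and IC50 values came from variable-slope non-linear regression.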
# [2] = biological target: T1, human BRD4 bromodomain II (Homo sapiens, UniProt O60885); assay: Bromodomain binding assay (AlphaScreen), BRD4 BDII
# T1 construct: human BRD4 bromodomain II [based on Genbank NM_058243, residues 349-460]; host or cells: E. coli
# Summary of the method: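 First, His6-tagged BRD4 bromodomain (BDI residues 44-170 or BDII residues 349-460) is incubated with compound for 30 min at room temperature. Next the biotinylated H4 peptide is added for 30 min, then donor and acceptor beads, with 60 min in the dark before AlphaScreen reading and IC50 fitting.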
# [3] = Homo sapiens, SKM-1, 96 h, SKM-1 antiproliferation assay, 4 days, Table C2
# [4] = AlphaScreen assay, Table C2, read-out: BRD4 BDII IC50
# [5] = Homo sapiens, SKM-1, SKM-1 antiproliferation assay
# [6] = BRD4 BDII AlphaScreen assay, read-out: BRD4 BD2 IC50
"GI50 [1, 3] [nM]","IC50 [2, 4] [nM]","GI50 [1, 5] [nM]","IC50 [2, 6] [nM]",GI50 ([1]; SKM-1 antiproliferation assay) [nM],Compound
30 to 300,1 to 10,,,,"CN1CCN(c2ccc(-c3cc(F)cc(-c4cnc(CCO)c(N5CCNCC5)c4)c3O)cc2Cl)C1=O [Example 428, 1-(3-chloro-5′-fluoro-2′-hydroxy-3′-(6-(2-hydroxyethyl)-5-(piperazin-1-yl)pyridin-3-yl)-[1,1′-biphenyl]-4-yl)-3-methylimidazolidin-2-one]"
30 to 300,10 to 100,,,,"CC(=O)Nc1ccc(-c2cc(F)cc(-c3ccnc(N4CC5(CNC5)C4)c3)c2O)cc1F [Example 321, N-(3′-(2-(2,6-diazaspiro[3.3]heptan-2-yl)pyridin-4-yl)-3,5′-difluoro-2′-hydroxy-[1,1′-biphenyl]-4-yl)acetamide]"
≥ 3000,> 100,,,,"COC(=O)c1cc(-c2cccc(-c3ccc(NC(C)=O)c(F)c3)c2O)cc(N2CCNCC2)n1 [Example 260, Methyl 4-(4′-acetamido-3′-fluoro-2-hydroxy-[1,1′-biphenyl]-3-yl)-6-(piperazin-1-yl)picolinate]"
30 to 300,10 to 100,,,,"CC(=O)Nc1ccc(-c2cccc(-c3ccnc(N4CC[C@@H](O)C4)c3)c2O)cc1F [Example 251, (R)-N-(3-fluoro-2′-hydroxy-3′-(2-(3-hydroxypyrrolidin-1-yl)pyridin-4-yl)-[1,1′-biphenyl]-4-yl)acetamide]"
,,300 to 3000,10 to 100,,"CNC(=O)Nc1ccc(-c2cc(F)cc(-c3cccc(N4CCN(C(C)(C)C)CC4)c3)c2O)cc1Cl [Example 921, 1-(3″-(4-(tert-Butyl)piperazin-1-yl)-3-chloro-5′-fluoro-2′-hydroxy-[1,1′:3′,1″-terphenyl]-4-yl)-3-methylurea]"
0.3 to 30,1 to 10,,,,"C[C@@H]1CN(c2cc(-c3cc(F)cc(-c4ccc(-n5ccn(C)c5=O)c(F)c4)c3O)ccn2)CCN1 [Example 534, (R)-1-(3,5′-difluoro-2′-hydroxy-3′-(2-(3-methylpiperazin-1-yl)pyridin-4-yl)-[1,1′-biphenyl]-4-yl)-3-methyl-1H-imidazol-2(3H)-one]"
300 to 3000,1 to 10,,,,"CC(=O)Nc1ccc(-c2cccc(-c3ccc(F)c(N4CCNCC4)c3)c2O)cc1F [Example 182, N-(3,4″-difluoro-2′-hydroxy-3(piperazin-1-yl)-[1,1′:3′,1″-terphenyl]-4-yl)acetamide]"
300 to 3000,1 to 10,,,,"CC(=O)Nc1ccc(-c2cccc(-c3ccnc(N4CC(C)NC(C)C4)c3)c2O)cc1F (stereo not drawn) [Example 279, N-(3′-(2-(3,5-dimethylpiperazin-1-yl)pyridin-4-yl)-3-fluoro-2′-hydroxy-[1,1′-biphenyl]-4-yl)acetamide]"
30 to 300,1 to 10,,,,"Cc1cc(-c2cccc(-c3ccc(N4CCN(C)C4=O)c(Cl)c3)c2O)cc(N2CCNCC2)n1 [Example 338, 1-(3-chloro-2′-hydroxy-3′-(2-methyl-6-(piperazin-1-yl)pyridin-4-yl)-[1,1′-biphenyl]-4-yl)-3-methylimidazolidin-2-one]"
300 to 3000,1 to 10,,,,"C[C@@H]1CN(c2cc(-c3cccc(-c4ccc(N5CCCC5=O)c(Cl)c4)c3O)ccn2)CCN1 [Example 253, (R)-1-(3-chloro-2′-hydroxy-3′-(2-(3-methylpiperazin-1-yl)pyridin-4-yl)-[1,1′-biphenyl]-4-yl)pyrrolidin-2-one]"
300 to 3000,10 to 100,,,,"O=C1NCCCN1c1ccc(-c2cccc(-c3ccnc(N4CCNCC4)c3)c2O)cc1Cl [Example 276, 1-(3-chloro-2′-hydroxy-3′-(2-(piperazin-l-yl)pyridin-4-yl)-[1,1′-biphenyl]-4-yl)tetrahydropyrimidin-2(1H)-one]"

# The next lines start with the compound.
Compound,"GI50 [1, 3] [nM]","IC50 [2, 4] [nM]","GI50 [1, 5] [nM]","IC50 [2, 6] [nM]",GI50 ([1]; SKM-1 antiproliferation assay) [nM]
"CN1CCCC12CCCN(c1cc(-c3cc(F)cc(-c4ccc(-n5ccn(C)c5=O)c(Cl)c4)c3O)ccn1)C2 (stereo not drawn) [Example 695, 1-(3-chloro-5′-fluoro-2′-hydroxy-3′-(2-(1-methyl-1,7-diazaspiro[4.5]decan-7-yl)pyridin-4-yl)-[1,1′-biphenyl]-4-yl)-3-methyl-1H-imidazol-2(3H)-one]",0.3 to 30,0.01 to 1,,,
"Cn1ccn(-c2ccc(-c3cc(C(F)(F)F)cc(-c4cccc(N5CCN(C(C)(C)C)CC5)c4)c3O)cc2Cl)c1=O [Example 1025, 1-(3″-(4-(tert-butyl)piperazin-1-yl)-3-chloro-2′-hydroxy-5′-(trifluoromethyl)-[1,1′:3′,1″-terphenyl]-4-yl)-3-methyl-1H-imidazol-2(3H)-one]",,,300 to 3000,1 to 10,
"Cn1ccn(-c2ccc(-c3cc(F)cc(-c4cccc(N5CC[C@@](C)(N)C5)c4)c3O)cc2Cl)c1=O [Example 758, (R)-1-(3″-(3-amino-3-methylpyrrolidin-1-yl)-3-chloro-5′-fluoro-2′-hydroxy-[1,1′:3′,1″-terphenyl]-4-yl)-3-methyl-1H-imidazol-2(3H)-one]",0.3 to 30,0.01 to 1,,,
"CN(C)c1ncc(-c2cc(F)cc(-c3ccc(-n4ccn(C)c4=O)c(Cl)c3)c2O)cc1N1CCN(C(C)(C)C)CC1 [Example 922, 1-(3′-(5-(4-(tert-Butyl)piperazin-1-yl)-6-(dimethylamino)pyridin-3-yl)-3-chloro-5′-fluoro-2′-hydroxy-[1,1′-biphenyl]-4-yl)-3-methyl-1H-imidazol-2(3H)-one]",,,0.3 to 30,0.01 to 1,
CN[C@H]1CCCN(c2cc(-c3cc(F)cc(-c4ccc(N5CCN(C)C5=O)c(Cl)c4)c3O)ccn2)C1 [Example 450],30 to 300,1 to 10,,,
"Cn1ccn(-c2ccc(-c3cc(F)cc(-c4ccnc(N5CCN(C[C@H](O)CO)CC5)c4)c3O)cc2Cl)c1=O [Example 621, (S)-1-(3-chloro-3′-(2-(4-(2,3-dihydroxypropyl)piperazin-1-yl)pyridin-4-yl)-5′-fluoro-2′-hydroxy-[1,1′-biphenyl]-4-yl)-3-methyl-1H-imidazol-2(3H)-one]",0.3 to 30,0.01 to 1,,,
"COc1ncc(-c2nc(C)cc(-c3ccc(-n4ccn(C)c4=O)c(Cl)c3)c2O)cc1N1CC[C@@]2(CCN2C(C)C)C1 [Example 1023, (S)-1-(2-chloro-4-(3-hydroxy-5′-(1-isopropyl-1,6-diazaspiro[3.4]octan-6-yl)-6'-methoxy-6-methyl-[2,3′-bipyridin]-4-yl)phenyl)-3-methyl-1,3-dihydro-2H-imidazol-2-one]",,,0.3 to 30,0.01 to 1,
"Cn1ccn(-c2ccc(-c3cc(F)cc(-c4cncc(N5CCC(C)(O)C5)c4)c3O)cc2Cl)c1=O (stereo not drawn) [Example 708, 1-(3-chloro-5′-fluoro-2′-hydroxy-3′-(5-(3-hydroxy-3-methylpyrrolidin-1-yl)pyridin-3-yl)-[1,1′-biphenyl]-4-yl)-3-methyl-1H-imidazol-2(3H)-one]",0.3 to 30,0.01 to 1,,,
"Cc1cc(-c2cncc(N3CCN[C@H](C)C3)c2)c(O)c(-c2ccc(-n3ccn(C)c3=O)c(Cl)c2)c1 [Example 508, (R)-1-(3-chloro-2′-hydroxy-5′-methyl-3′-(5-(3-methylpiperazin-1-yl)pyridin-3-yl)-[1,1′-biphenyl]-4-yl)-3-methyl-1H-imidazol-2(3H)-one]",0.3 to 30,1 to 10,,,
"Cn1ccn(-c2ccc(-c3cc(F)cc(-c4cccc(N5CC[C@](C)(N)C5)c4)c3O)cc2Cl)c1=O [Example 749, (S)-1-(3″-(3-amino-3-methylpyrrolidin-1-yl)-3-chloro-5′-fluoro-2′-hydroxy-[1,1′:3′,1″-terphenyl]-4-yl)-3-methyl-1H-imidazol-2(3H)-one]",0.3 to 30,1 to 10,,,
Cn1ccn(-c2ccc(-c3cc(F)cc(-c4cccc(N5CCN(C6CCOC6)CC5)c4)c3O)cc2Cl)c1=O (stereo not drawn) [Example 867],,,30 to 300,1 to 10,
"Cn1ccn(-c2ccc(-c3cc(F)cc(-c4ccnc(N5CCNCC5=O)c4)c3O)cc2Cl)c1=O [Example 463, 1-(4-(3′-chloro-5-fluoro-2-hydroxy-4′-(3-methyl-2-oxo-2,3-dihydro-1H-imidazol-1-yl)-[1,1′-biphenyl]-3-yl)pyridin-2-yl)piperazin-2-one]",30 to 300,0.01 to 1,,,
"CC(C)c1cc(-c2cc(F)cc(-c3cccc(N4CCN(C(C)(C)C)CC4)c3)c2O)cc(Cl)c1-n1ccn(C)c1=O [Example 934, (R)-1-(3″-(4-(tert-butyl)piperazin-1-yl)-3-chloro-5′-fluoro-2′-hydroxy-5-isopropyl-[1,1′:3′,1″-terphenyl]-4-yl)-3-methyl-1,3-dihydro-2H-imidazol-2-one]",,,,> 100,300 to 3000
"CN1CCN(c2cc(-c3cc(F)cc(-c4ccc(N5CCN(C)C5=O)c(Cl)c4)c3O)ccn2)CC1 [Example 441, 1-(3-chloro-5′-fluoro-2′-hydroxy-3′-(2-(4-methylpiperazin-1-yl)pyridin-4-yl)-[1,1′-biphenyl]-4-yl)-3-methylimidazolidin-2-one]",30 to 300,1 to 10,,,
"Cn1ccn(-c2ccc(-c3cc(F)cc(-c4ccnc(N5CC[C@H](N6CCOCC6)C5)c4)c3O)cc2Cl)c1=O [Example 635, (S)-1-(3-chloro-5′-fluoro-2′-hydroxy-3′-(2-(3-morpholinopyrrolidin-1-yl)pyridin-4-yl)-[1,1′-biphenyl]-4-yl)-3-methyl-1H-imidazol-2(3H)-one]",0.3 to 30,1 to 10,,,
"Cc1cc(-c2ccc(-n3ccn(C)c3=O)c(Cl)c2)c(O)c(-c2cccc(N3CCC4(CCN4C(C)C)C3)c2)n1 (stereo not drawn) [Example 983, 1-(2-chloro-4-(3-hydroxy-2-(3-(1-isopropyl-1,6-diazaspiro[3.4]octan-6-yl)phenyl)-6-methylpyridin-4-yl)phenyl)-3-methyl-1H-imidazol-2(3H)-one]",,,0.3 to 30,0.01 to 1,
